Source: patent publication EP1935986B1, “Luminogenic and fluorogenic compounds and methods to detect molecules or conditions” (priority 2005, dated 2006)
Where “and” joins values, the source holds several entries; their conditions need not be identical. Equal entries are not always repeated. Where two headings read alike, the source gives them in different places.

Legend:
[1] = target: T1, QuantiLum Luciferase (Photinus pyralis, UniProt P08659); test: Emission spectra of luciferase reactions with luciferin, 5'-fluoroluciferin, 7'-fluoroluciferin; format: biochemical, firefly; details: reagent pH 7.4
T1 construct: purchased Promega Corporation E170
Experimental: All compounds except fluoroluciferin and ATP were purchased from Sigma Chemical. ATP was purchased from Amersham/Invitrogen.
Spectra were measured using 0.5s integration with 1 nm increments on a Spex Fluorolog.

[2] = target: T1, QuantiLum Luciferase; test: ATP titration of firefly luciferase reactions with luciferin and fluoroluciferins; format: biochemical; details: result in words
Experimental: All compounds except 5'-fluoroluciferin and DTT were purchased from Sigma Chemical. To some of this reagent 5 mM ATP (Amersham/Invitrogen) was added, then serially diluted by half-logs to 0.05 mM. Reactions were initiated by adding equal volumes (0.1 ml) of reagent and DMEM medium (Gibco/Invitrogen) containing 0.1% Prionex® (Pentapharm) and 1.4 x 10-5 mg/ml QuantiLum™ Luciferase (Promega Corporation).
For ATP titrations for 7'-fluoroluciferin, reagent was created containing 200 mM HEPES, 200 mM PIPES, 1 mM CDTA, 0.5% Tergitol NP-9, 0.03% Benzyl dodecyldimethyl ammonium bromide, 30 mM thiourea, 10 mM magnesium sulfate, and 0.15 mM 7'-fluoroluciferin. This solution was separated into 3 parts and pH of the reagents were 7.4, 7.2 and 6.7. To some of this reagent, 10 mM ATP (Amersham/Invitrogen) was added. The ATP was serially diluted by quarter-logs from 10 mM to 0.32 mM.
Reactions were initiated by adding equal volumes (0.03 ml) of reagent and DMEM medium (Gibco/Invitrogen) containing 0.1% Prionex® (Pentapharm) and 1.4 x 10-5 mg/ml QuantiLum™ Luciferase (Promega Corporation).
Luminescence was measured for 0.5 seconds per well using Berthold Orion luminometer.

[3] = target: T1, QuantiLum Luciferase; test: pH titration of firefly luciferase reaction with 7'-fluoroluciferin; format: biochemical
[4] = target: T1, QuantiLum Luciferase; test: Scaffolds: light emission of luciferin derivatives with QuantiLum luciferase alone, + Co A, + DTT, + Co A and DTT; format: biochemical, firefly
[5] = system: equine GST; test: Two-step bioluminogenic GST assay with luciferin derivative; format: biochemical; details: versus GST M1-1 and GST A1-1; result in words
Experimental: The derivative was tested in a two step format. […] At different times after the reaction was initiated, a portion was removed and mixed with a luciferase reaction mixture. Reactions in which light production increased over time indicate that GST#3 is a substrate for the GST in that reaction.
Equine GST Solution: 25 mg of equine GST (Part G 6511, Sigma Chemical Company, St. Louis, MO) was dissolved in 5 ml of 10 mM BisTris buffer, pH 6.6. […] […] Glutathione (reduced) (Part G 4251, Sigma Chemical Company) was dissolved in water to create a 100 mM solution. GST #3 was dissolved in acetonitrile to produce a 12 mM solution.

[6] = Non-enzymatic transformation of luciferin derivative by glutathione (no GST), luciferase read-out; format: biochemical; details: time of mixing/20/40 minutes
Experimental: Buffer stock solutions (1 M) of BisTris at pH 6.5, HEPES, pH 7.0, 7.5 and 8.0 and Tricine pH 8.5 were prepared by dissolving solid reagent obtained from Sigma Chemical Corporation and adjusting the pH to the desired value.
The stock of S. japonica GST used in Example 1A was diluted to 1 mg/ml with 10 mM BisTris pH 6.5.
The reactions were initiated by addition of GST #3 and mixing. […]

[7] = target: T2, GST M1-1 (Homo sapiens, UniProt P09488, K173N); test: Bioluminogenic GST assay with acetyl luciferin; format: biochemical; details: versus GST A1-1; result in words
T2 construct: purchased Sigma

[8] = target: CYP3A5 (Homo sapiens, UniProt P20815); test: Two-step luminescent P450 screen of luciferin derivatives; details: result in words
[9] = system: CYP3A
[10] = target: T3, CYP4F12 (Homo sapiens, UniProt Q9HCS2); details: previously shown (Cali, 2005b); cited from earlier work
T3 construct: purchased Discovery Labware (BD/Gentest); host or cells: insect cell expression system (membrane fractions)
T3 sequence (Q9HCS2 1-524): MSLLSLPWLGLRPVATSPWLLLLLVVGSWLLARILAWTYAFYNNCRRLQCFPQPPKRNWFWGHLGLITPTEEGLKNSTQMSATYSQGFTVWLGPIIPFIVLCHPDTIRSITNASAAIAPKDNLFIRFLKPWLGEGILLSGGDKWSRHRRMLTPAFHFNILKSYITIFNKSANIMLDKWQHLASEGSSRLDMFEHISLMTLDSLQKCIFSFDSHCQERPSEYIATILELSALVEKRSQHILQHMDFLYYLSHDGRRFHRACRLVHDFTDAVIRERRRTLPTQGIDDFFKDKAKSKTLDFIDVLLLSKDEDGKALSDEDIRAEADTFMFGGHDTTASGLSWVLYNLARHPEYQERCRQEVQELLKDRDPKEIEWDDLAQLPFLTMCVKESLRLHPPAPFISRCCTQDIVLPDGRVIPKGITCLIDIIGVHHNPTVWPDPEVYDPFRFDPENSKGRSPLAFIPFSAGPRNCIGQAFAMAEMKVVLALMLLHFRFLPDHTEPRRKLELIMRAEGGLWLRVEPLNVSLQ

[11] = target: T4, CYP3A4 (Homo sapiens, UniProt P08684); test: Two-step luminescent P450 screen of luciferin derivatives; details: result in words
[12] = target: T3, CYP4F12; test: as above; format: biochemical; details: result in words
Experimental: P450s are Supersomes™ purchased from Discovery Labware (BD/Gentest). […] HLM is human liver microsomes.
1X substrate concentration: 50 µM.

[13] = system: luciferase; test: No-enzyme control: activity of luciferase towards the luciferin derivative (background luminescence)
[14] = target: T5, CYP3A7 (Homo sapiens, UniProt P24462); test: Two-step luminescent P450 screen of luciferin derivatives; details: result in words
[15] = system: equine alcohol dehydrogenase; test: Effect of inhibitors on the conversion of luciferol by equine alcohol dehydrogenase; format: biochemical; details: luciferol + equine ADH + NAD+ with 10 µl inhibitor solution, 37°C, 30 minutes; duplicate reactions #1, #2 (controls 1023, 1087)
Experimental: Trichloroethanol solution: A 0.48 ml sample of 2,2,2, trichloroethanol (Aldrich T5480-5) was dissolved in water.
Duplicate reactions were assembled (see Table 19).
Reactions were initiated by addition of 1.5 µl of luciferol solution. Upon addition of the luciferol solution, the reactions were mixed and placed at 37°C.

[16] = target: T5, CYP3A7
[17] = target: T4, CYP3A4
[18] = Derivative Conc. 1.07, Co A + DTT
[19] = Derivative Conc. 3.13, Co A + DTT
[20] = Derivative Conc. 6.25, Co A + DTT
[21] = Derivative Conc. 12.5, Co A + DTT
[22] = Derivative Conc. 25, Co A + DTT
[23] = Derivative Conc. 50, Co A + DTT
[24] = Derivative Conc. 100, Co A + DTT

T1 sequence (P08659 whole entry): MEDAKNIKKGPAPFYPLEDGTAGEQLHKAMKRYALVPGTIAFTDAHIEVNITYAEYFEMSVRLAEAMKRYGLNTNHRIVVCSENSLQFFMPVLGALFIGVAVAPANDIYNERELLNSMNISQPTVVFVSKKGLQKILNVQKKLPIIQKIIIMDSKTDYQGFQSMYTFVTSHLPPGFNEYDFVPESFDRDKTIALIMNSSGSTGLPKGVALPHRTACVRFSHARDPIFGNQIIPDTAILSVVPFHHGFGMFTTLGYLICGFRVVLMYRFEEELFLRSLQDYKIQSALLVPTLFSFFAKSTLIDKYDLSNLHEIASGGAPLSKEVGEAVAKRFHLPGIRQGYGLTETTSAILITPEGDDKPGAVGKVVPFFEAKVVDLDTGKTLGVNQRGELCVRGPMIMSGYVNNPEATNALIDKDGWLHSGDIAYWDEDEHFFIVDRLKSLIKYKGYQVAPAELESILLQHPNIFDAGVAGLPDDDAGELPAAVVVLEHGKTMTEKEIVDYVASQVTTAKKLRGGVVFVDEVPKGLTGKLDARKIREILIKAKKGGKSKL
T5 sequence (P24462 whole entry): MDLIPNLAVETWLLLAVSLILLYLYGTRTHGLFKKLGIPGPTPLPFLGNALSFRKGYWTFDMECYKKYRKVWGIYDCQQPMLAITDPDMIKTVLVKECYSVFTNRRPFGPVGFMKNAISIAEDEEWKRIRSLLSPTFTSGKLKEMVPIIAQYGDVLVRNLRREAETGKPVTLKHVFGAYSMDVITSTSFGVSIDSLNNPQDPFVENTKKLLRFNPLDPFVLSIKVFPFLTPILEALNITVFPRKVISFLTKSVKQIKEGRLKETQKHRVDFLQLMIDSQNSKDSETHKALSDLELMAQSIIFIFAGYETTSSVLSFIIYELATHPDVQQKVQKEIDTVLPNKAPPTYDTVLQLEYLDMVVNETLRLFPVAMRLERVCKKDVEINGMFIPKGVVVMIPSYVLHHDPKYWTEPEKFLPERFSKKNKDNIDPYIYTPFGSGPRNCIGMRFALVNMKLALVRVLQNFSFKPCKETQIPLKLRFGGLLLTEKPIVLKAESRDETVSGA
T4 sequence (P08684 2-503 limits assumed): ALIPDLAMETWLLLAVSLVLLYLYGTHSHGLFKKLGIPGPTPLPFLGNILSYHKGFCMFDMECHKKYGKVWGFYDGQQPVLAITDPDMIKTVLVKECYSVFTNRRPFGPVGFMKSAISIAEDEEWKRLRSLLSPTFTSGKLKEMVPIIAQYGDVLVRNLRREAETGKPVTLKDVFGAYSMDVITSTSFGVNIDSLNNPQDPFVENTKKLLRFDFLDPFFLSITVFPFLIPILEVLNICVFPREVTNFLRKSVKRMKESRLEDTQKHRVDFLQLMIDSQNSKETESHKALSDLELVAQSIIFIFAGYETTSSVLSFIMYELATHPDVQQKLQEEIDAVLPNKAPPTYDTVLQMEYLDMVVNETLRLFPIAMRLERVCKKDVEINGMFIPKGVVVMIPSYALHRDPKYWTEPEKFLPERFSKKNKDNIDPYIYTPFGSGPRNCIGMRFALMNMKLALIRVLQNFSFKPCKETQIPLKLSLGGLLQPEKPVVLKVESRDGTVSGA
T2 sequence (P09488 whole entry K173N): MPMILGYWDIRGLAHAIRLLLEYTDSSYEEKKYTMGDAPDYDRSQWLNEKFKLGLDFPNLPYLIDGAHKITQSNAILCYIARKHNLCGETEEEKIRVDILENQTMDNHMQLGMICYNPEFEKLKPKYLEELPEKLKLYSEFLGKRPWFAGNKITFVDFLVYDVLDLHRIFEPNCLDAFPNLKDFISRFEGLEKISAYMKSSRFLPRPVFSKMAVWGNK
Chain of CYP3A5 (P20815 whole entry): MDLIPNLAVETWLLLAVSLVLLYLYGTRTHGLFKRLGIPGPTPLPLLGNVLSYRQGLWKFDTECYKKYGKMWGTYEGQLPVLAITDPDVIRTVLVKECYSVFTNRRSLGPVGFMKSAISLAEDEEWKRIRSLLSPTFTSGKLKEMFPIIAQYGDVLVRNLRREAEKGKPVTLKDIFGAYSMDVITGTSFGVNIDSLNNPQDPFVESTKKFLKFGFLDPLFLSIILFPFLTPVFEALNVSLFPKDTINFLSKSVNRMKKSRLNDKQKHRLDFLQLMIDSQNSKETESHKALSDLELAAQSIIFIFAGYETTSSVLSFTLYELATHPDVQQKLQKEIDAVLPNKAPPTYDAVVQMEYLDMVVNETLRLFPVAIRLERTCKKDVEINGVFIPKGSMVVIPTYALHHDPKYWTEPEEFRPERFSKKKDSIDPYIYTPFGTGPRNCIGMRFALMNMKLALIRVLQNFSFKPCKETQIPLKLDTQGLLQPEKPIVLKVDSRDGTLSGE

In the case of O=C(O)[C@H]1CSC(c2nc3ccc(O)c(F)c3s2)=N1 [7'-fluoroluciferin], the “λmax of luminescence, red-shifted from regular luciferin” value [1] is reported as “approximately 21 nm”, the “ATP requirement of the luciferase reaction compared with luciferin” value [2] is reported as “requirement for ATP is much higher” and the “pH optima for the firefly luciferase reaction” value [3] is reported as ~7.5 pH.

O=C(O)[C@H]1CSC(c2ccc3cc(Oc4ccc(C(F)(F)F)cc4[N+](=O)[O-])ccc3n2)=N1 [GST #3, 6-(2-nitro-4-trifluoromethyl-phenoxy)quinolinyl-luciferin] gave a light emission values ([4]; Derivative Conc. 1.07, Alone) of 3232, a light emission values ([4]; Derivative Conc. 1.07, Co A) of 3081 and a light emission values [4, 18] of 6964. For the same molecule, the light emission values ([4]; Derivative Conc. 1.07, DTT) was 5953, the light emission values ([4]; Derivative Conc. 3.13, Alone) was 4913 and the light emission values ([4]; Derivative Conc. 3.13, Co A) was 4832. The light emission values [4, 19] was 8826, the light emission values ([4]; Derivative Conc. 3.13, DTT) was 9106 and the light emission values ([4]; Derivative Conc. 6.25, Alone) was 7682. The light emission values ([4]; Derivative Conc. 6.25, Co A) was 7149, the light emission values [4, 20] was 10423 and the light emission values ([4]; Derivative Conc. 6.25, DTT) was 11164. For the same molecule, the light emission values ([4]; Derivative Conc. 12.5, Alone) was 11752, the light emission values ([4]; Derivative Conc. 12.5, Co A) was 10674 and the light emission values [4, 21] was 14298. The light emission values ([4]; Derivative Conc. 12.5, DTT) was 16587, the light emission values ([4]; Derivative Conc. 25, Alone) was 15957 and the light emission values ([4]; Derivative Conc. 25, Co A) was 14791. For the same molecule, the light emission values [4, 22] was 18145, the light emission values ([4]; Derivative Conc. 25, DTT) was 21256 and the light emission values ([4]; Derivative Conc. 50, Alone) was 17409. It also gave a light emission values ([4]; Derivative Conc. 50, Co A) of 15440, a light emission values [4, 23] of 20009 and a light emission values ([4]; Derivative Conc. 50, DTT) of 22888. The light emission values ([4]; Derivative Conc. 100, Alone) was 16388, the light emission values ([4]; Derivative Conc. 100, Co A) was 18343 and the light emission values [4, 24] was 19129. The light emission values ([4]; Derivative Conc. 100, DTT) was 21472, the “substrate preference among GSTs in a light generating reaction” value [5] was “better substrate for equine GST” and the “Light Output” value ([6]; Table 4 reaction 2: BisTris pH 6.5, 5 µl 100 mM glutathione, no GST, 20 minutes post mixing) was 1.287. The “Light Output” value ([6]; Table 4 reaction 2: BisTris pH 6.5, 5 µl 100 mM glutathione, no GST, 40 minutes post mixing) was 1.761, the “Light Output” value ([6]; Table 4 reaction 2: BisTris pH 6.5, 5 µl 100 mM glutathione, no GST, at time of mixing) was 1.13 and the “Light Output” value ([6]; Table 4 reaction 4: HEPES pH 7.0, glutathione, 20 minutes post mixing) was 1.178. For the same molecule, the “Light Output” value ([6]; Table 4 reaction 4: HEPES pH 7.0, glutathione, 40 minutes post mixing) was 2.2 and the “Light Output” value ([6]; Table 4 reaction 4: HEPES pH 7.0, glutathione, at time of mixing) was 1.156.

With COC(=O)[C@H]1CSC(c2ccc3cc(Oc4ccc(C(F)(F)F)cc4[N+](=O)[O-])ccc3n2)=N1 [GST-4, Methyl 6-(2-nitro-4-trifluoromethyl-phenoxy)quinolinyl-luciferin ester] the “substrate preference among GSTs in a light generating reaction” value [7] was “better substrate for GST M1-1”.

With O=C(O)[C@H]1CSC(c2nc3ccc(OCc4ccc(C(F)(F)F)cc4)cc3s2)=N1 [Luciferin-6-trifluoromethylbenzylether] the “P450 activity / selectivity with the derivative as substrate” value (“P450 activity / selectivity” below) [8] was “enhanced selectivity”.

With CC(=O)N1CCN(c2ccc(OCC3COC(Cn4ccnc4)(c4ccc(Cl)cc4Cl)O3)cc2)CC1 (stereo not drawn) [ketoconazole] the “CYP3A-dependent luminescence in human hepatocytes” value [9] was “inhibition by ketoconazole of both basal and rifampicin-induced activity”.

For O=C(O)[C@H]1CSC(c2nc3ccc(OCc4ccccc4)cc3s2)=N1 [luciferin 6-benzyl ether, reference compound], the “reaction with CYP4F12” value [10] is listed as “react also with CYP4F12”, the “competition at the substrate binding sites on CYP3A4” value [11] is listed as “only competitive at 1 site” and the “P450 activity / cross reactivity with the derivative as substrate” value [12] is listed as “cross reacted”. It also gave a light emission values ([4]; Derivative Conc. 1.07, Alone) of 29234, a light emission values ([4]; Derivative Conc. 1.07, Co A) of 50144 and a light emission values [4, 18] of 51799. For the same molecule, the light emission values ([4]; Derivative Conc. 1.07, DTT) was 57066, the light emission values ([4]; Derivative Conc. 3.13, Alone) was 32994 and the light emission values ([4]; Derivative Conc. 3.13, Co A) was 55778. For the same molecule, the light emission values [4, 19] was 80626, the light emission values ([4]; Derivative Conc. 3.13, DTT) was 86445 and the light emission values ([4]; Derivative Conc. 6.25, Alone) was 38838. For the same molecule, the light emission values ([4]; Derivative Conc. 6.25, Co A) was 58288, the light emission values [4, 20] was 105912 and the light emission values ([4]; Derivative Conc. 6.25, DTT) was 100044. It also gave a light emission values ([4]; Derivative Conc. 12.5, Alone) of 40486, a light emission values ([4]; Derivative Conc. 12.5, Co A) of 57996 and a light emission values [4, 21] of 97371. The light emission values ([4]; Derivative Conc. 12.5, DTT) was 94861, the light emission values ([4]; Derivative Conc. 25, Alone) was 40093 and the light emission values ([4]; Derivative Conc. 25, Co A) was 53097. It also gave a light emission values [4, 22] of 90306, a light emission values ([4]; Derivative Conc. 25, DTT) of 84034 and a light emission values ([4]; Derivative Conc. 50, Alone) of 30609. The light emission values ([4]; Derivative Conc. 50, Co A) was 38349, the light emission values [4, 23] was 98716 and the light emission values ([4]; Derivative Conc. 50, DTT) was 80001. It also gave a light emission values ([4]; Derivative Conc. 100, Alone) of 31581, a light emission values ([4]; Derivative Conc. 100, Co A) of 33199 and a light emission values [4, 24] of 64460. For the same molecule, the light emission values ([4]; Derivative Conc. 100, DTT) was 54592, the background luminescence ([13]; on a BMG luminometer, minus P450) was “about 5000 RLU” and the “background luminescence (minus P450 control samples)” value ([13]; result in words) was “high background luminescence”. The “P450 activity / selectivity” value [14] was “cross reacted significantly”.

For OCC(Cl)(Cl)Cl [trichloroethanol, 2,2,2, trichloroethanol], the “Relative Light Units” value [15] was 524.8 and 342.1.

For quinolylluciferin 6-benzyl ether, the “P450 activity / selectivity” value [16] was “preferred substrate” and the “P450 activity / selectivity” value [17] was “to a lesser degree a substrate”.
